Experiment: In vivo tissue distribution of 131I-ethyliopanoate loaded microcapsules after i.v. injection
Set-up: species or system rat
Details: rats, 5 uCi radiotracer
Description: PBLG and estrone-PBLG microcapsules loaded with [^131 I]ethyliopanoate (5.7 μCi in […] of water) were administered to rats in the tail vein. Rats (N=3/group) were sacrificed at 1, 3, 6, and 24 hours after injection. The percentage of injected dose in an organ or tissue was determined by a gamma counter.
Estrone conjugated poly-benzyl-L-glutamate microcapsules loaded with ^131 I-labeled ethyliopanoate were injected into rats (three per group) via the tail-vein (5.7 μCi in 0.3 ml water). Control groups were given only the ^131 I-labeled iopanoic acid. Rats were sacrificed at 1, 3, 6 and 24 hours post injection. The percent of injected dose per organ or per tissue weight was determined by a COBRA Auto-gamma counter (Packard, Meridien, Conn.).

## CCOC(=O)C(CC)Cc1c(I)cc(I)c(N)c1I (stereo not drawn) [IOPA, ethyliopanoate]
1 hr
  UTERUS TO MUSCLE RATIO: 2.92 ± 0.464
3 hrs
  UTERUS TO MUSCLE RATIO: 3.60 ± 0.346
6 hrs
  UTERUS TO MUSCLE RATIO: 3.47 ± 0.122

Reference: patent publication US5484584A, “Therapeutic and diagnostic use of modified polymeric microcapsules” (priority 1992, dated 1996)
